Data published in patent US4691024A, “New mitomycin derivatives, preparation thereof and pharmaceutical compositions containing them” (priority 1984, dated 1987).
≈ marks a conversion by molar mass, not a printed value. Counter-ions that a name gives are not always drawn. Like-named read-outs stand apart in the source and are kept apart here.

Tests used:
Assay type in all cases: cell-based
[1] = test system: Proteus vulgaris ATCC 6897; assay: Antibacterial activity, minimum growth inhibitory concentration by agar dilution method (PV)
Protocol: (§1) The various compounds of formula (I) of Examples 1-26 were tested for antibacterial activity against 6 microorganisms. […]. In this table, the following symbols are used:
PV: Proteus vulgaris ATCC 6897

[2] = test system: Staphylococcus aureus ATCC 6538P; assay: Antibacterial activity, minimum growth inhibitory concentration by agar dilution method (SA); conditions: ATCC6538P
Protocol: as §1
SA: Staphylococcus aureus ATCC 6538P

[3] = test system: Streptococcus faecalis ATCC 10541; assay: Antibacterial activity, minimum growth inhibitory concentration by agar dilution method (SF); conditions: Enterococcus faecalis
Protocol: as §1
SF: Streptococcus faecalis ATCC 10541

[4] = test system: Bacillus subtilis 10707; assay: Antibacterial activity, minimum growth inhibitory concentration by agar dilution method (BS)
Protocol: as §1
BS: Bacillus subtilis 10707

[5] = test system: Klebsiella pneumoniae ATCC 10031; assay: microbe, parasite or virus in culture; conditions: ATCC10031, pH 7, read-out: MIC, Klebsiella pneumoniae (KP)
Text: In this table, the following symbols are used:
KP: Klebsiella pneumoniae ATCC 10031

[6] = test system: Shigella sonnei ATCC 9290; assay: Antibacterial activity, minimum growth inhibitory concentration by agar dilution method (SS)
Protocol: as §1
SS: Shigella sonnei ATCC 9290

[7] = ATCC6897, pH 7, read-out: MIC, Proteus vulgaris (PV)
[8] = pH 7, read-out: MIC, Staphylococcus aureus (SA)
[9] = ATCC10541, pH 7, read-out: MIC, Streptococcus faecalis (SF)
[10] = Bacillus subtilis, 10707, pH 7, read-out: MIC, Bacillus subtilis (BS)
[11] = ATCC9290, pH 7, read-out: MIC, Shigella sonnei (SS)

SMILES | MIC [1, 7] | MIC [2, 8] | MIC [3, 9] | MIC [4, 10] | MIC [5] | MIC [6, 11] | MIC ([1]; ATCC6897, agar dilution method, pH 7.0, read-out: MIC, Proteus vulgaris (PV)) | MIC ([2]; agar dilution method, pH 7.0, read-out: MIC, Staphylococcus aureus (SA)) | MIC ([6]; ATCC9290, agar dilution method, pH 7.0, read-out: MIC, Shigella sonnei (SS)) | MIC ([3]; ATCC10541, agar dilution method, pH 7.0, read-out: MIC, Streptococcus faecalis (SF)) | MIC ([4]; Bacillus subtilis, 10707, agar dilution method, pH 7.0, read-out: MIC, Bacillus subtilis (BS))
CC1=C(NCCSSC[C@H](NC(=O)CC[C@H](N)C(=O)O)C(=O)NCC(=O)O)C(=O)C2=C(C1=O)N1C[C@H]3[C@H](N3C)[C@]1(O)[C@H]2COC(N)=O (stereo partly drawn) [Compound 23, 7-N-[2-[(γ-L-glutamyl-L-cysteinylglycin-S-yl)thio]ethyl]-mitomycin D potassium salt] | 13 µg/mL | 6.3 µg/mL | 6.3 µg/mL | 6.3 µg/mL |  |  |  |  |  |  | 
CO[C@@]12[C@H](COC(N)=O)C3=C(C(=O)C(C)=C(NCCSSc4ccc(NC(C)=O)cc4)C3=O)N1C[C@H]1[C@@H]2N1C (some centres unmarked) [Compound 6, 7-N-[2-(4-Acetamidophenyldithio)ethyl]porfiromycin] |  | 1.3 µg/mL (≈ 2.27 µM) | 0.63 µg/mL (≈ 1.1 µM) | 0.08 µg/mL (≈ 0.139 µM) | > 20 µg/mL |  |  |  |  |  | 
CO[C@@]12[C@H](COC(N)=O)C3=C(C(=O)C(C)=C(NCCSSc4ccc(C)cc4)C3=O)N1C[C@@H]1N[C@@H]12 [Compound 10, 7-N-[2-(4-Methylphenyldithio)ethyl]mitomycin C] | 2.5 µg/mL (≈ 4.84 µM) | 0.04 µg/mL (≈ 0.0774 µM) | 0.08 µg/mL (≈ 0.155 µM) | 0.02 µg/mL (≈ 0.0387 µM) | 1.3 µg/mL (≈ 2.52 µM) | > 20 µg/mL |  |  |  |  | 
CO[C@@]12[C@H](COC(N)=O)C3=C(C(=O)C(C)=C(NCCSSCCC(N)C(=O)O)C3=O)N1C[C@@H]1N[C@@H]12 (mixture of isomers) [Compound 24, 7-N-[2-[(DL-Homocystein-S-yl)thio]ethyl]mitomycin C] | 1.3 µg/mL | 0.08 µg/mL | 0.63 µg/mL | < 0.02 µg/mL | 0.31 µg/mL | 40 µg/mL |  |  |  |  | 
CO[C@@]12[C@H](COC(N)=O)C3=C(C(=O)C(C)=C(NCCSSC[C@H](NC(=O)CC[C@H](N)C(=O)O)C(=O)NCC(=O)O)C3=O)N1C[C@@H]1N[C@@H]12 [Compound 22, 7-N-[2-[(γ-L-Glutamyl-L-cysteinylglycin-S-yl)thio]ethyl]mitomycin C potassium salt] | 2.5 µg/mL | 0.31 µg/mL | 1.3 µg/mL | 0.08 µg/mL | 0.63 µg/mL | > 20 µg/mL |  |  |  |  | 
CCOC(=O)CNC(=O)[C@H](CSSCCNC1=C(C)C(=O)C2=C(C1=O)[C@H](COC(N)=O)[C@@]1(O)[C@@H]3[C@H](CN21)N3C)NC(=O)CC[C@H](N)C(=O)O (some centres unmarked) [Compound 26] | 13 µg/mL (≈ 17.9 µM) | 6.3 µg/mL (≈ 8.66 µM) | 13 µg/mL (≈ 17.9 µM) | 1.6 µg/mL (≈ 2.2 µM) | 25 µg/mL (≈ 34.3 µM) |  |  |  |  |  | 
CO[C@@]12[C@H](COC(N)=O)C3=C(C(=O)C(C)=C(N)C3=O)N1C[C@@H]1N[C@@H]12 [MM-C, Mitomycin C, reference compound] |  |  |  |  |  |  | 0.04 µg/mL (≈ 0.12 µM) | 0.02 µg/mL (≈ 0.0598 µM) | 1.3 µg/mL (≈ 3.89 µM) | 0.04 µg/mL (≈ 0.12 µM) | 0.01 µg/mL (≈ 0.0299 µM)
CO[C@@]12[C@H](COC(N)=O)C3=C(C(=O)C(C)=C(NCCSSc4ccccc4)C3=O)N1C[C@@H]1N[C@@H]12 [Compound 1, 7-N-[2-(Phenyldithio)ethyl]mitomycin C] | 1.3 µg/mL (≈ 2.59 µM) | 0.02 µg/mL (≈ 0.0398 µM) | 0.02 µg/mL (≈ 0.0398 µM) | < 0.01 µg/mL | 0.31 µg/mL (≈ 0.617 µM) | 20 µg/mL (≈ 39.8 µM) |  |  |  |  | 
CCOC(=O)CNC(=O)[C@H](CSSCCNC1=C(C)C(=O)C2=C(C1=O)[C@@H](COC(N)=O)[C@@]1(OC)[C@H]3N[C@H]3CN21)NC(=O)CC[C@H](N)C(=O)O [Compound 25, 7-N-[2-[(γ-L-Glutamyl-L-cysteinyl-ethyl-glycinat-S-yl)thio]ethyl]mitomycin C] | 10 µg/mL (≈ 13.7 µM) | 0.16 µg/mL (≈ 0.22 µM) | 0.63 µg/mL (≈ 0.866 µM) | 0.04 µg/mL (≈ 0.055 µM) | 2.5 µg/mL (≈ 3.43 µM) |  |  |  |  |  | 
CO[C@@]12[C@H](COC(N)=O)C3=C(C(=O)C(C)=C(NCCSSc4c(F)c(F)cc(F)c4F)C3=O)N1C[C@@H]1N[C@@H]12 [Compound 13, 7-N-[2-(2,3,5,6-Tetrafluorophenyldithio)ethyl]mitomycin C] | 5 µg/mL (≈ 8.7 µM) | 0.16 µg/mL (≈ 0.278 µM) | 0.31 µg/mL (≈ 0.54 µM) | 0.02 µg/mL (≈ 0.0348 µM) | 0.63 µg/mL (≈ 1.1 µM) | 10 µg/mL (≈ 17.4 µM) |  |  |  |  | 
CO[C@@]12[C@H](COC(N)=O)C3=C(C(=O)C(C)=C(NCCSSc4ccc([N+](=O)[O-])cc4)C3=O)N1C[C@@H]1N[C@@H]12 [Compound 8, 7-N-[2-(4-Nitrophenyldithio)ethyl]mitomycin C] | 2.5 µg/mL (≈ 4.57 µM) | 0.16 µg/mL (≈ 0.292 µM) | 0.16 µg/mL (≈ 0.292 µM) | 0.08 µg/mL (≈ 0.146 µM) | 1.3 µg/mL (≈ 2.37 µM) | 5 µg/mL (≈ 9.13 µM) |  |  |  |  | 
